The values below come from ChEMBL document CHEMBL1201862, “PubChem BioAssay data set” (2004).

Test systems include HOP-62; HCC 2998; LXFL 529; K562; IGROV-1; UACC-62; 786-0; MOLT-4; UACC-257; OVCAR-8; SN12C; COLO 205; SNB-75; SW-620; NCI-H460; RXF 393; HOP-92; PC-3; DU-145; T47D.
Assay in all cases: NCI anticancer screen, dose series, 48 h

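Following 48 hours of exposure in 96-well plates, responses at five concentrations were used to interpolate endpoints linearly. At the GI50, growth is halved.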 Active and inactive are the calls of the source. No stated cut-off is given here; in the data, active = GI50 up to about 1.1 µM and inactive = higher. Some results are limits rather than exact numbers.

As for `C/C(CN1C(=O)c2ccccc2C1=O)=N\NS(=O)(=O)c1ccc(F)cc1`, the GI50 in the test with HOP-62, with HCC 2998, with LXFL 529, with K562, with IGROV-1 and in the test with UACC-62 was > 100 µM (inactive) in each case. In addition, the GI50 in the test with 786-0, in the test on MOLT-4, with UACC-257, in the test with OVCAR-8, in the test with SN12C and in the test with COLO 205 was > 100 µM (inactive) throughout. The GI50 in the test on SNB-75, with SW-620 and in the test with NCI-H460 was > 100 µM (inactive) each time.

Take `CC(C)(C)OC1=C(OC(C)(C)C)C(O)(c2ccc(Cl)cc2)C1=O` (stereo not given): the GI50 with HCC 2998, in the test with LXFL 529, with K562, in the test with IGROV-1, in the test with RXF 393 and with UACC-62 was > 100 µM (inactive) each time. Also, the GI50 in the test on 786-0 is > 100 µM (inactive); with MOLT-4, > 100 µM (inactive); in the test with OVCAR-8 it was > 100 µM (inactive); in the test with SN12C it was > 100 µM (inactive); with COLO 205, > 100 µM (inactive); with SNB-75, 99.3 µM (inactive). In addition, the GI50 in the test on SW-620 and in the test on NCI-H460 was > 100 µM (inactive) throughout.

As to `CC#Cc1c(C#CC)c(OC)c2c(c1OC)C(=O)c1ccccc1C2=O`, the GI50 was 17.3 µM (inactive) in the test on HOP-62; > 100 µM (inactive) in the test on HCC 2998; 54.2 µM (inactive) with LXFL 529; > 100 µM (inactive) in the test on K562; 73.6 µM (inactive) in the test with IGROV-1; 10.7 µM (inactive) in the test with RXF 393. The GI50 was 23.9 µM (inactive) in the test on UACC-62; 23.3 µM (inactive) in the test on 786-0; > 100 µM (inactive) with MOLT-4; > 100 µM (inactive) with UACC-257; 66.5 µM (inactive) with OVCAR-8; > 100 µM (inactive) in the test with SN12C. The GI50 with COLO 205, in the test with SW-620 and in the test on NCI-H460 was > 100 µM (inactive) each time.

Consider `CN(C)CCn1c2ccccc2c2nc3cc4ccccc4cc3nc21`, for which the GI50 in the test on HOP-62 was 3.07 µM (inactive); in the test on HCC 2998, 5.69 µM (inactive); with LXFL 529, 4.95 µM (inactive); in the test with K562 it was 2.92 µM (inactive); in the test with IGROV-1, 2.08 µM (inactive); in the test on RXF 393 it was 11 µM (inactive). In addition, the GI50 was 9.14 µM (inactive) in the test with UACC-62; 3.23 µM (inactive) in the test with 786-0; 0.885 µM (active) in the test with MOLT-4; 5.9 µM (inactive) in the test on OVCAR-8; 4.61 µM (inactive) in the test on SN12C; 1.87 µM (inactive) in the test with COLO 205. Also, the results for the GI50 in the test with SW-620 and with NCI-H460 were 3.48 µM (inactive) and 0.796 µM (active), respectively.

With `C[C@]12CC[C@H]3[C@@H](CCC4=CC(=O)C=C[C@@]43OC(=O)C(F)(F)F)[C@@H]1CCC2=O`, the GI50 in the test on HOP-62 was > 100 µM (inactive); in the test on HCC 2998, > 100 µM (inactive); with K562, > 100 µM (inactive); in the test with IGROV-1, > 100 µM (inactive); with RXF 393, > 100 µM (inactive); in the test on UACC-62, > 85.5 µM (inactive). Also, the GI50 with 786-0 is > 45.6 µM (inactive); in the test with MOLT-4 it was > 95.5 µM (inactive); in the test with UACC-257, > 100 µM (inactive); with HOP-92 it was > 100 µM (inactive); in the test with PC-3, > 100 µM (inactive); with OVCAR-8, > 100 µM (inactive). For the same compound, the GI50 in the test with SN12C, in the test on COLO 205, with SNB-75, with DU-145, with SW-620 and in the test with NCI-H460 was > 100 µM (inactive) throughout. In the test on T47D, the GI50 was > 100 µM (inactive).

Take `Cc1c(CCl)c(=O)oc2c(C)c3occ(CCl)c(=O)c3cc12`: the GI50 in the test with HOP-62 is > 100 µM (inactive); in the test with HCC 2998 it was > 100 µM (inactive); in the test with LXFL 529, 15.2 µM (inactive); in the test on K562, 6.43 µM (inactive); with IGROV-1, 20.3 µM (inactive); in the test with RXF 393, 15.7 µM (inactive). Besides, the GI50 was 16.3 µM (inactive) in the test with UACC-62; > 100 µM (inactive) with 786-0; 6.35 µM (inactive) in the test with MOLT-4; > 100 µM (inactive) in the test with UACC-257; > 100 µM (inactive) in the test with OVCAR-8; 23.4 µM (inactive) with SN12C. For the same compound, the GI50 was 16 µM (inactive) in the test on COLO 205, 17.2 µM (inactive) in the test with SNB-75, > 100 µM (inactive) in the test on SW-620 and > 100 µM (inactive) in the test on NCI-H460.

Regarding `C=C1C[C@]23CCC4C(C)(C)C(=O)CC[C@]4(C)C2C[C@H]1C(O)C3=O` (stereo not given in full), the GI50 in the test with HOP-62, in the test with LXFL 529, in the test on K562, with IGROV-1, with RXF 393 and in the test with UACC-62 was > 75 µM (inactive) throughout. Moreover, the GI50 with 786-0, in the test with MOLT-4, in the test on UACC-257, with OVCAR-8, in the test on SN12C and in the test on COLO 205 was > 75 µM (inactive) throughout. In addition, the GI50 with SNB-75 and with SW-620 was > 75 µM (inactive) in each case.

On to `CN(C)CCN(C)c1ccc2c(=O)n(CCN(C)C)c(=O)n3c4ccccc4c(=O)c1c23`, for which the GI50 was 0.0897 µM (active) with HOP-62; 0.454 µM (active) in the test with HCC 2998; 0.14 µM (active) in the test on K562; 0.426 µM (active) in the test with IGROV-1; 2.81 µM (inactive) in the test with RXF 393; 0.993 µM (active) in the test on UACC-62. In addition, the GI50 with 786-0 was 0.108 µM (active); in the test with MOLT-4 it was 0.0167 µM (active); in the test on UACC-257 it was 1.56 µM (inactive); with HOP-92, 0.145 µM (active); in the test with PC-3 it was 0.973 µM (active); in the test with OVCAR-8, 0.582 µM (active). The GI50 is 0.0964 µM (active) in the test on SN12C; 0.647 µM (active) with COLO 205; 0.316 µM (active) with SNB-75; 0.128 µM (active) in the test on DU-145; 0.119 µM (active) in the test on SW-620; 0.029 µM (active) with NCI-H460. Further, in the test on T47D, the GI50 was 1.09 µM (active).

For the compound `O=C(O)CSc1nnc(COc2ccc(Cl)cc2)n1-c1ccccc1`, the GI50 in the test with HOP-62, in the test with HCC 2998, in the test on K562, with IGROV-1, with RXF 393 and in the test with UACC-62 was > 100 µM (inactive) each time. Besides, the GI50 in the test on 786-0, in the test with MOLT-4, in the test with UACC-257, in the test with HOP-92, in the test with PC-3 and in the test with OVCAR-8 was > 100 µM (inactive) in each case. Further, the GI50 in the test with SN12C, in the test with COLO 205, in the test with SNB-75, in the test with DU-145, in the test on SW-620 and in the test with NCI-H460 was > 100 µM (inactive) each time. In addition, in the test on T47D, the GI50 was > 100 µM (inactive).
